One assay relates to K.Pneumoniae BAA-1705. In words: MIC by broth microdilution, β-lactam antibiotic combined with β-lactamase inhibitor. The assay is classed as cell-based. To be noted: Klebsiella pneumoniae, BAA1705; K.Pneumoniae BAA-1705, expresses KPC-2; MIC of the antibiotic, inhibitor fixed at 4 mg/L; read-out: Antibacterial Activity (MIC50). A general note: Broth dilution looks for growth in wells or tubes with falling amounts of substance.

Another assay has as its system E. coli ATCC 25922. Described as above. The assay is classed as cell-based. To be noted: Escherichia coli, ATCC25922; E. coli ATCC 25922, β-lactamase expressed: -; MIC of the antibiotic, inhibitor fixed at 4 mg/L; read-out: Antibacterial Activity (MIC50). The procedure: (§1) The minimum inhibitory concentration (MIC) of the Example compounds (at a concentration of 4 mg/L) in combination with β-lactam antibiotics (ceftazidime, cefepime, meropenem, imipenem, aztreonam) against bacterial strains was tested using the broth microdilution method recommended by the Clinical and Laboratory Standards Institute (CLSI, formerly NCCLs) [Methods for Dilution Antimicrobial Susceptibility Tests for Bacteria That Grow Aerobically; Approved Standard-tenth Edition M07-A10, 2015]. The specific test materials and procedures are as follows.
(§2) The standard strains used in this experiment were purchased ATCC strains. The clinical strains used were strains resistant to some or all marketed β-lactam antibiotics, isolated and identified by domestic public hospitals, and the types of β-lactamases they express were determined. Before the experiment, each bacterial strain was purified by streaking single colonies on an agar plate, and fresh bacterial cultures grown overnight at 37°C were appropriately diluted for the experiment.
(§3) CAMHB (Cation Adjusted Mueller-Hinton) medium, incubated at 35-37°C in air for 16-20 h.
(§4) CAMHB Formula: Acid-hydrolyzed casein (17.5 g/L), beef extract (3.0 g/L), soluble starch (1.5 g/L), calcium ions (20-25 mg/L), magnesium ions (10-12.5 mg/L).
(§5) Stock solutions at 4 times the working concentration were prepared in CAMHB broth for the combinations of antibiotics (ceftazidime, cefepime, meropenem, aztreonam) and Example compounds. The final concentrations of antibiotics in the stock solutions were 256, 128, 64, 32, 16, 8, 4, 2, 1, 0.5, 0.25, 0.125 mg/L, respectively. The final concentration of avibactam, relebactam, or Example compounds was 4 mg/L.
(§6) Several colonies were picked from an 18-24 h cultured agar plate and suspended directly in sterile physiological saline to prepare a bacterial suspension. The turbidity of the suspension was adjusted to 0.5 McFarland standard. The adjusted bacterial suspension was diluted with CAMHB broth to (4-8) × 10^5 CFU/mL and used immediately.
(§7) Test Group: 50 µL of the antibiotic (ceftazidime, cefepime, meropenem, imipenem, aztreonam) stock solution and 50 µL of the β-lactamase inhibitor (avibactam, relebactam, or Example compound) stock solution were added to wells 1 to 12 of a sterile 96-well polystyrene plate. Then, 100 µL of CAMHB containing the test bacterial suspension was added to each well, making a total volume of 200 µL per well. The final drug concentrations in the wells were 64, 32, 16, 8, 4, 2, 1, 0.5, 0.25, 0.125, 0.06, 0.03 mg/L, respectively. […]
(§8) The inoculated 96-well polystyrene plates were sealed and placed in an incubator at 35-37°C for 16-20 h before reading the results. […]

The next assay has as its system P. aeruginosa ATCC 27853. The assay is described as above. The format is cell-based. To be noted: Pseudomonas aeruginosa, ATCC27853; P. aeruginosa ATCC 27853, expresses AmpC; MIC of the antibiotic, inhibitor fixed at 4 mg/L; read-out: Antibacterial Activity (MIC50). The method, then:
as §1, §2, §3, §4, §5, §6, §7, §8

The next assay relates to E. coli ATCC 35218. Described as above. The format is cell-based. The conditions noted are these: Escherichia coli, ATCC35218; E. coli ATCC 35218, expresses TEM-1; MIC of the antibiotic, inhibitor fixed at 4 mg/L; read-out: Antibacterial Activity (MIC50). The procedure: as §1, §2, §3, §4, §5, §6, §7, §8
For the next assay, the system named is E. Coli NCTC 13353. Described as above. The assay is classed as cell-based. To be noted: Escherichia coli, NCTC13353; E. Coli NCTC 13353, expresses CTX-M-15; MIC of the antibiotic, inhibitor fixed at 4 mg/L; read-out: Antibacterial Activity (MIC50). The method, then: as §1, §2, §3, §4, §5, §6, §7, §8
The next assay concerns the target OXA-10 (Pseudomonas aeruginosa, UniProt P14489). In words: β-Lactamase inhibitory activity test, nitrocefin substrate. The assay is classed as biochemical. The procedure: (§9) The IC50 of β-lactamase inhibitors against β-lactamases was tested using nitrocefin as the substrate. The enzyme and serially diluted β-lactamase inhibitor were incubated in 50 mM phosphate buffer (containing 0.1 mg/mL bovine serum albumin) at 37°C for 10 minutes. The reaction was initiated by adding 100 µM nitrocefin, and the reaction temperature was set to 37°C. The absorbance at 490 nm was recorded every minute for a total of 1 hour. The initial reaction rate was calculated, and the IC50 was calculated using GraphPad Prism software. Table 4. Inhibitory activity (IC50, mg/L) of compounds against β-lactamases

The target of another assay is KPC-2 (Klebsiella pneumoniae, UniProt Q9F663). The assay is described as above. The format is biochemical. The procedure:
as §9

In a further assay the target is OXA-23 (Acinetobacter baumannii, UniProt Q9L4P2). The description is as above. The assay is classed as biochemical. The method, then:
as §9

A further assay concerns the target TEM-1 (Escherichia coli, UniProt P62593). Described as above. The assay is classed as biochemical. The method, then:
as §9

The mark [1] stands for this setting: TEM-1, enzyme family A, 100 µM nitrocefin, 37°C, 10 minutes preincubation, read-out: Inhibitory activity (IC50).

Read-outs that look alike come from different tables or passages of the source.

Sequence of OXA-23 (Q9L4P2 18-273): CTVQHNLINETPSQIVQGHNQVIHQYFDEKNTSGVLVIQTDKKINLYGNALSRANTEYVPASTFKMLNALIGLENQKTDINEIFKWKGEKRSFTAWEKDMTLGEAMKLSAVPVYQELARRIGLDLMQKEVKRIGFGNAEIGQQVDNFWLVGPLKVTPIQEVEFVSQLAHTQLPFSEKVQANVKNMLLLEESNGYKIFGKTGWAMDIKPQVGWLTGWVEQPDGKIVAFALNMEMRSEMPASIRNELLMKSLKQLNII
Sequence of KPC-2 (Q9F663 25-293 limits assumed): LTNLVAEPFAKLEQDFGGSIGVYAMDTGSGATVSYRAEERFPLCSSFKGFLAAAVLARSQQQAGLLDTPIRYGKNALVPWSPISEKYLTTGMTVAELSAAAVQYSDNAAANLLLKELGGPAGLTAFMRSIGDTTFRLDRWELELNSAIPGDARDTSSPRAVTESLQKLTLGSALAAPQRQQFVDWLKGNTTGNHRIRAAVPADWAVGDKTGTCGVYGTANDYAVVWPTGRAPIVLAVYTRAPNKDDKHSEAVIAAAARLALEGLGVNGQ
Sequence of TEM-1 (P62593 24-286 limits assumed): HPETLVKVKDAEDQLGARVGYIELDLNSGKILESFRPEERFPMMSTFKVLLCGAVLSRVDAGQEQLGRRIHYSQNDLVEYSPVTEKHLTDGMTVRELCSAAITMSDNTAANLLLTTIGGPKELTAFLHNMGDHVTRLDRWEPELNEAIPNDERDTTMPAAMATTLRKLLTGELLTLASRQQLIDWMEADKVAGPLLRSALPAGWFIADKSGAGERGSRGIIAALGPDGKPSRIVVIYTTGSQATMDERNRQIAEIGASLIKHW
Sequence of OXA-10 (P14489 20-266): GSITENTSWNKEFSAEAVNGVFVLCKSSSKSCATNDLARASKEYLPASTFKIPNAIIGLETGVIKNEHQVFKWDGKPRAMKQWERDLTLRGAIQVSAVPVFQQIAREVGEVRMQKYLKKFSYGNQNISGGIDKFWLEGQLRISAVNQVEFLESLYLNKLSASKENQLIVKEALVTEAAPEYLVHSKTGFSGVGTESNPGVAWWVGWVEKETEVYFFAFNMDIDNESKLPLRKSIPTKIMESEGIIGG
Method for K.Pneumoniae BAA-1705: CAMHB (Cation Adjusted Mueller-Hinton) medium, incubated at 35-37°C in air for 16-20 h. […]

On to `CC(C)(O/N=C(\C(=O)N[C@@H]1C(=O)N2C(C(=O)[O-])=C(C[n+]3ccccc3)CS[C@H]12)c1csc(N)n1)C(=O)O` [Ceftazidime], for which the MIC50 in the assay on K.Pneumoniae BAA-1705 was above 10 µg/mL; in the assay on E. coli ATCC 25922 it was 0.1 to 1 µg/mL; with P. aeruginosa ATCC 27853, 1 to 10 µg/mL; with E. coli ATCC 35218, 0.1 to 1 µg/mL; in the assay with E. Coli NCTC 13353, above 10 µg/mL.

As for `O=C1N2Cc3c(ccn3S(=O)(=O)c3ccccc3)C(C2)N1OS(=O)(=O)O` (centres unmarked) [Example 1 Compound], the half-maximal inhibitory concentration (IC50) against OXA-10, against KPC-2, against OXA-23 and at TEM-1 (setting [1]) was below 1000 nM in each case.

On to `CS(=O)(=O)n1ccc2c1CN1CC2N(OS(=O)(=O)O)C1=O` (centres unmarked) [Example 2 Compound], for which the concentration for half-maximal inhibition (IC50) at OXA-10, against KPC-2, against OXA-23 and on TEM-1 (setting [1]) was below 1000 nM in each case.

On to `CS(=O)(=O)n1ccc2c1CN1C[C@@H]2N(OS(=O)(=O)O)C1=O` [Example 3 Compound], for which the half-inhibitory concentration (IC50) against OXA-10, against KPC-2, at OXA-23 and at TEM-1 (setting [1]) was below 1000 nM throughout.

For `CCS(=O)(=O)n1ccc2c1CN1C[C@@H]2N(OS(=O)(=O)O)C1=O` [Example 4 Compound], the values for the half-inhibitory concentration (IC50) on KPC-2, against OXA-23 and against TEM-1 were below 1000 nM, 1000 to 10000 nM and below 1000 nM, respectively.

In the case of `O=C1N2Cc3c(ccn3S(=O)(=O)c3cccnc3)[C@H](C2)N1OS(=O)(=O)O` [Example 10 Compound], the half-maximal inhibitory concentration (IC50) against KPC-2, on OXA-23 and against TEM-1 was below 1000 nM each time.

Consider `Cn1cc(S(=O)(=O)n2ccc3c2CN2C[C@@H]3N(OS(=O)(=O)O)C2=O)cn1` [Example 11 Compound], for which the values for the IC50 on KPC-2, on OXA-23 and at TEM-1 were below 1000 nM, 1000 to 10000 nM and below 1000 nM, respectively.

With `CS(=O)(=O)n1ccc2c1C(C(N)=O)N1CC2N(OS(=O)(=O)O)C1=O` (centres unmarked) [Example 14 Compound], the IC50 at KPC-2 was below 1000 nM; on OXA-23, 10000 to 100000 nM; on TEM-1, below 1000 nM.

In the case of `NC(=O)C1c2c(ccn2S(=O)(=O)C2CC2)C2CN1C(=O)N2OS(=O)(=O)O` (centres unmarked) [Example 15 Compound], the 50% inhibitory concentration (IC50) on KPC-2, against OXA-23 and against TEM-1 was above 100000 nM in each case.

As usually defined, the MIC50 is the lowest concentration that inhibits either 50% of growth or 50% of the strains tested, depending on the study. In general, IC50 refers to the concentration that inhibits the measured activity by half.

Values taken from EP4759816A1, “UREA-CONTAINING […] ß-LACTAMASE INHIBITOR, PREPARATION METHOD THEREFOR AND USE THEREOF” (priority 2023, dated 2025).
